Here are results for nine compounds from US9776981B2, “Hepatitis C virus inhibitors” (BRISTOL-MYERS SQUIBB COMPANY, priority 2009, dated 2017).

A word on the pEC50: it is the EC50 on a negative log10 scale, so that one unit is a factor of ten.

pEC50: −log10 of the molar value. Read-outs that look alike come from different tables or passages of the source.

This test concerns HCV 1b genotype (HCV-neo replicon cells). In words: HCV Replicon assay (HCV 1b genotype). Conditions: Hepatitis C virus, HCV 1b genotype replicon. The test is classed as cell-based. Here is the method: An HCV Replicon assay was utilized in the present disclosure, and was prepared, conducted and validated as described in commonly owned PCT/US2006/022197 and in O'Boyle et al., Antimicrob. Agents Chemother., 49(4):1346-1353 (April 2005). Assay methods incorporating luciferase reporters have also been used as described (Apath.com).
HCV-neo replicon cells and replicon cells containing resistance substitutions in the NS5A region were used to test the currently described family of compounds. The compounds were determined to have differing degrees of reduced inhibitory activity on cells containing mutations vs. the corresponding inhibitory potency against wild-type cells. Thus, the compounds of the present disclosure can be effective in inhibiting the function of the HCV NS5A protein and are understood to be as effective in combinations as previously described in application PCT/US2006/022197 and commonly owned WO 04/014852. It should be understood that the compounds of the present disclosure can inhibit multiple genotypes of HCV. […] In one embodiment, compounds of the present disclosure are inhibitory versus 1a, 1b, 2a, 2b, 3a, 4a, and 5a genotypes.
For orientation: Replicon systems follow genome replication, usually without infectious particles.

Setting [1] is: class symbol, read-out: Range (EC50 against HCV 1b).

Consider `COC(=O)N[C@H](C(=O)N1[C@@H]2C[C@@H]2C[C@H]1c1ncc(-c2ccc3nc(-c4ccc5nc([C@@H]6C[C@H]7C[C@H]7N6C(=O)[C@@H](NC(=O)OC)C6CCOCC6)[nH]c5c4)cnc3c2)[nH]1)C1CCOCC1` [Example 53, Methyl ((1S)-2-((1R,3S,5R)-3-(4-(2-(2-((1R,3S,5R)-2-((2S)-2-((methoxycarbonyl)amino)-2-(tetrahydro-2H-pyran-4-yl)acetyl)-2-azabicyclo[3.1.0]hex-3-yl)-1H-benzimidazol-5-yl)-6-quinoxalinyl)-1H-imidazol-2-yl)-2-azabicyclo[3.1.0]hex-2-yl)-2-oxo-1-(tetrahydro-2H-pyran-4-yl)ethyl)carbamate], for which the pEC50 by setting is: under setting [1], 6.00 to 9.00; (read-out: EC50) 8.74. Regarding `COC(=O)N[C@H](C(=O)N[C@H](c1nc(-c2ccc(-c3ccc4cc(-c5c[nH]c([C@@H](NC(=O)[C@@H](NC(=O)OC)C(C)C)C(C)(C)C)n5)ccc4c3)cc2)c[nH]1)C(C)(C)C)C(C)C` [Example 149, methyl ((1S)-1-(((1S)-1-(4-(4-(6-(2-((1S)-1-(((2S)-2-((methoxycarbonyl)amino)-3-methylbutanoyl)amino)-2,2-dimethylpropyl)-1H-imidazol-4-yl)-2-naphthyl)phenyl)-1H-imidazol-2-yl)-2,2-dimethylpropyl)carbamoyl)-2-methylpropyl)carbamate], the pEC50 under setting [1] is 9.00 to 11.00. For the compound `COC(=O)N[C@H](C(=O)N1C[C@@H](C)C[C@H]1c1ncc(-c2ccc(-c3ccc4cc(-c5[nH]c([C@@H]6C[C@H](C)CN6C(=O)[C@@H](NC(=O)OC)C6CCOCC6)nc5Cl)ccc4c3)cc2)[nH]1)C1CCOCC1` [Example 144, Methyl ((1S)-2-((2S,4S)-2-(4-(4-(6-(4-chloro-2-((2S,4S)-1-((2S)-2-((methoxycarbonyl)amino)-2-(tetrahydro-2H-pyran-4-yl)acetyl)-4-methyl-2-pyrrolidinyl)-1H-imidazol-5-yl)-2-naphthyl)phenyl)-1H-imidazol-2-yl)-4-methyl-1-pyrrolidinyl)-2-oxo-1-(tetrahydro-2H-pyran-4-yl)ethyl)carbamate], the pEC50 is 9.00 to 11.00 under setting [1] and 10.75 (read-out: EC50). Take `COC(=O)N[C@@H](C(=O)N[C@H](c1nc(-c2ccc3cc(-c4ccc(-c5cnc([C@@H](NC(=O)[C@H](NC(=O)OC)C(C)C)C(C)(C)C)[nH]5)cc4)ccc3c2)c[nH]1)C(C)(C)C)C(C)C` [Example 148, Methyl ((1R)-1-(((1S)-1-(4-(4-(6-(2-((1S)-1-(((2R)-2-((methoxycarbonyl)amino)-3-methylbutanoyl)amino)-2,2-dimethylpropyl)-1H-imidazol-4-yl)-2-naphthyl)phenyl)-1H-imidazol-2-yl)-2,2-dimethylpropyl)carbamoyl)-2-methylpropyl)carbamate]: the pEC50 is, setting by setting: under setting [1], 6.00 to 9.00; (read-out: EC50) 8.07. Consider `COC(=O)N[C@H](C(=O)N1C[C@@H](C)C[C@H]1c1ncc(-c2ccc(-c3ccc4cc(-c5[nH]c([C@@H]6C[C@H](C)CN6C(=O)[C@@H](NC(=O)OC)C(C)C)nc5Cl)ccc4c3)cc2)[nH]1)C(C)C` [Example 143, Methyl ((1S)-1-(((2S,4S)-2-(4-(4-(6-(4-chloro-2-((2S,4S)-1-((2S)-2-((methoxycarbonyl)amino)-3-methylbutanoyl)-4-methyl-2-pyrrolidinyl)-1H-imidazol-5-yl)-2-naphthyl)phenyl)-1H-imidazol-2-yl)-4-methyl-1-pyrrolidinyl)carbonyl)-2-methylpropyl)carbamate], for which the pEC50 (read-out: EC50) is 11.98.

On to `COC(=O)N[C@H](C(=O)N1[C@@H]2C[C@@H]2C[C@H]1c1ncc(-c2cnc3cc(-c4ccc5nc([C@@H]6C[C@H]7C[C@H]7N6C(=O)[C@@H](NC(=O)OC)C6CCOCC6)[nH]c5c4)ccc3n2)[nH]1)C1CCOCC1` [Example 58, Methyl ((1S)-2-((1R,3S,5R)-3-(4-(6-(2-((1R,3S,5R)-2-((2S)-2-((methoxycarbonyl)amino)-2-(tetrahydro-2H-pyran-4-yl)acetyl)-2-azabicyclo[3.1.0]hex-3-yl)-1H-benzimidazol-5-yl)-2-quinoxalinyl)-1H-imidazol-2-yl)-2-azabicyclo[3.1.0]hex-2-yl)-2-oxo-1-(tetrahydro-2H-pyran-4-yl)ethyl)carbamate], for which the pEC50 by setting is: under setting [1], 9.00 to 11.00; (read-out: EC50) 9.07. For `CC(C)CC(=O)N[C@H](c1nc(-c2ccc(-c3ccc4cc(-c5c[nH]c([C@@H](NC(=O)CC(C)C)C(C)(C)C)n5)ccc4c3)cc2)c[nH]1)C(C)(C)C` [Example 150, N-((1S)-1-(4-(4-(6-(2-((1S)-2,2-dimethyl-1-((3-methylbutanoyl)amino)propyl)-1H-imidazol-4-yl)-2-naphthyl)phenyl)-1H-imidazol-2-yl)-2,2-dimethylpropyl)-3-methylbutanamide], the pEC50 under setting [1] is 6.00 to 9.00. `COC(=O)N[C@H](C(=O)N1[C@@H]2C[C@@H]2C[C@H]1c1ncc(-c2ccc3nc(-c4ccc5nc([C@@H]6C[C@H]7C[C@H]7N6C(=O)[C@@H](NC(=O)OC)C(C)C)[nH]c5c4)cnc3c2)[nH]1)C(C)C` [Example 52, Methyl ((1S)-1-(((1R,3S,5R)-3-(4-(2-(2-((1R,3S,5R)-2-((2S)-2-((methoxycarbonyl)amino)-3-methylbutanoyl)-2-azabicyclo[3.1.0]hex-3-yl)-1H-benzimidazol-5-yl)-6-quinoxalinyl)-1H-imidazol-2-yl)-2-azabicyclo[3.1.0]hex-2-yl)carbonyl)-2-methylpropyl)carbamate]: the pEC50 (read-out: EC50) is 11.23. With `COC(=O)N[C@H](C(=O)N1CCC[C@H]1c1nc2ccc(-c3ccc4cc(-c5ccc6nc([C@@H]7CCCN7C(=O)[C@@H](NC(=O)OC)C7CC7)[nH]c6c5)ccc4c3)cc2[nH]1)C1CC1` [Example 11, Dimethyl (2,6-naphthalenediylbis(1H-benzimidazole-5,2-diyl(2S)-2,1-pyrrolidinediyl((1S)-1-cyclopropyl-2-oxo-2,1-ethanediyl)))biscarbamate], the pEC50 under setting [1] was 9.00 to 11.00 and the pEC50 (read-out: EC50) is 10.74.
